From patent publication US9181290B2, “Inhibition of biofilm formation by 1,2,3,4,6-penta-O-galloyl-D-glucopyranose” (CHANG GUNG UNIVERSITY, priority 2011, dated 2015)

Tests used:
[1] = system: clinical strains SA289, SA44, SA435 and SA703; experiment: Biofilm formation by four less sensitive clinical strains at 50 μM (data not shown); type: cell-based, Staphylococcus aureus; settings: across the four clinical strains
Experimental: (§1) An overnight bacterial culture was 200-fold diluted with TSBg, and a 200 μL aliquot of the diluted culture was seeded into each well of 96-well polystyrene microtiter plates and incubated at 37° C. for a designated period of time. Cell growth was determined by measuring the absorbance at 578 nm (A578) with a microtiter plate reader (SpectraMax 340, Molecular Devices). After washing with PBS twice to remove suspended cells, the wells were stained with 0.1% (w/v) crystal violet in 10% ethanol and then treated with 30% acetic acid in dH2O, followed by detecting the absorbance at 595 nm (A595) with the microtiter plate reader to quantify the amount of biofilm formed on polystyrene surface.

S. aureus SA113 = experiment: Biofilm formation on β-PGG/polyaniline-coated polystyrene wells (safranin staining); type: cell-based, Staphylococcus aureus; settings: polyaniline carrier, 24 hrs
Experimental: β-PGG (stock conc.: 8.89 μg/mL in DMSO) in various amounts was evenly mixed with a fixed amount of polyaniline (40 μL, 3 mg/mL in DMSO) so as to provide a 100 μL β-PGG/polyaniline mixture with a final β-PGG concentration of 0.47 μM, 0.94 μM, 1.89 μM, 3.78 μM, 4.73 μM or 5.67 μM. The resultant β-PGG/polyaniline mixture was coated on the inner surfaces of the wells of 96-well polystyrene microtiter plates in an amount of 100 μL per well. After β-PGG coating, the plates were dried in a vacuum chamber, followed by UV sterilization for 30 min. An overnight culture of S. aureus SA113 was 200-fold diluted with TSBg, and a 200 μL aliquot of the diluted culture was seeded into each well of the β-PGG-coated microtiter plates. After culturing at 37° C. for 24 hrs, the wells were washed twice with PBS, and then examined by safranin staining according to a method described earlier (Christine Heilmann et al. (1996), Infect. Immun., 64 (1):277-282), so as to quantify the amount of biofilm formed on the β-PGG-coated polystyrene surface.

[2] = system: S. aureus SA113Δica (ATCC 35556Δica::tet); experiment: Biofilm formation by ica deletion mutant on polycarbonate surface; type: cell-based, Staphylococcus aureus; settings: 6 hrs
Experimental: To quantify the amount of biofilm formed on polycarbonate surface, a 13-mm-diameter polycarbonate disc (Thermanox, Nalgene Nunc International, Rochester, N.Y., USA) was placed in a well of a 24-well microtiter plate, followed by the addition of 1 mL aliquot of the diluted bacterial culture. After incubation at 37° C. for a designated period of time, viable cells were washed off the surface of the polycarbonate disc with PBS and counted as described above, while the PBS-washed polycarbonate disc was subjected to crystal violet staining for biofilm quantification as described above.

Acinetobacter baumannii = experiment: Anti-biofilm activity (data not shown); type: cell-based
[3] = system: PIA production by clinical isolates of S. aureus (SA13, SA288, SA44, SA 130); experiment: Quantification of PIA in four clinical isolates; type: cell-based, Staphylococcus aureus; settings: 12.5 μM and 25 μM, 6 hrs
Experimental: The amount of PIA was determined by chemiluminescence detection using horseradish peroxidase-conjugated streptavidin (Pierce) according to a method described elsewhere (S. Schlag et al. (2007), supra). Briefly, a tested bacterial strain prepared in TSBg broth was added with β-PGG at a designated concentration and then cultured in a 9 cm petri dish for 6 hrs. The bacterial cells grown in the petri dish were collected by scraping, followed by centrifugation, and the resultant cell pellets were redissolved by addition of 3 mL of 0.5 M EDTA (pH 8.0) for every gram (wet weight) of cell pellet, followed by boiling at 100° C. for 10 min. After centrifugation at 10,000 g for 30 min, the resultant supernatant was 100-fold diluted. An 80 μL aliquot of the diluted supernatant was incubated with 20 μL of proteinase K (10 mg/mL, in dH2O) at 37° C. for 2 hrs, followed by blotting onto a PVDF membrane (Millipore) using a 96-well dot-blot apparatus. […] Thereafter, the membrane was detected by autoradiography using X-ray film, and the intensity of each spot formed on the X-ray film was quantified using a densitometer (LAS-3000, Fujifilm). The relative PIA amount produced by the tested bacterial strain was determined based on the detected intensity, with the amount of PIA from bacterial cells without PGG treatment being set as 100%. […]

[4] = system: S. aureus clinical strain SA41 (MSSA); experiment: Growth (A578) and biofilm (A595) in polystyrene plates; type: cell-based, Staphylococcus aureus; settings: 12.5 μM β-PGG, 6 hr
Experimental: as §1

[5] = system: S. aureus clinical strain SA13 (MSSA); experiment: as above; type: cell-based, Staphylococcus aureus; settings: 12.5 μM β-PGG, 6 hr
Experimental: as §1

[6] = system: S. aureus clinical strain SA285 (MSSA); experiment: as above; type: cell-based, Staphylococcus aureus; settings: 12.5 μM β-PGG, 6 hr
Experimental: as §1

[7] = system: S. aureus clinical strain SA44 (MRSA); experiment: as above; type: cell-based, Staphylococcus aureus; settings: 12.5 μM β-PGG, 6 hr
Experimental: as §1

[8] = system: S. aureus clinical strain SA33 (MSSA); experiment: as above; type: cell-based, Staphylococcus aureus; settings: 12.5 μM β-PGG, 6 hr
Experimental: as §1

[9] = system: S. aureus clinical strain SA486 (MRSA); experiment: as above; type: cell-based, Staphylococcus aureus; settings: 12.5 μM β-PGG, 6 hr
Experimental: as §1

## O=C(OC[C@H]1O[C@@H](OC(=O)c2cc(O)c(O)c(O)c2)[C@H](OC(=O)c2cc(O)c(O)c(O)c2)[C@@H](OC(=O)c2cc(O)c(O)c(O)c2)[C@@H]1OC(=O)c1cc(O)c(O)c(O)c1)c1cc(O)c(O)c(O)c1 [β-PGG, 1,2,3,4,6-penta-O-galloyl-β-D-glucopyranose]
[1]
  reduction of biofilm formation: 83-97%
S. aureus SA113; coated with β-PGG at 1.9 μM or lower
  biofilm formation on coated polystyrene wells: slightly affected
S. aureus SA113; coated with β-PGG at a concentration higher than 3.8 μM
  decrease of the amount of biofilm on coated polystyrene wells: more than 90%
[2]; 3.13 μM
  decrease of the amount of biofilm, polycarbonate surface: 67%
[2]; 12.5 μM
  decrease of the amount of biofilm, polycarbonate surface: 96%
Acinetobacter baumannii
  anti-biofilm activity: potent to mild anti-biofilm activity
[3]
  PIA production by four clinical isolates: inhibited PIA production
[4]; 0 μM: 0.65 ± 0.02
  Growth (A578): 0.61 ± 0.05
[4]; 0 μM: 1.67 ± 0.27
  Biofilm (A595): 0.36 ± 0.05
[5]; 0 μM: 0.69 ± 0.09
  Growth (A578): 0.67 ± 0.06
[5]; 0 μM: 0.98 ± 0.13
  Biofilm (A595): 0.12 ± 0.04
[6]; 0 μM: 0.56 ± 0.09
  Growth (A578): 0.46 ± 0.03
[6]; 0 μM: 0.86 ± 0.09
  Biofilm (A595): 0.16 ± 0.02
[7]; 0 μM: 0.66 ± 0.08
  Growth (A578): 0.64 ± 0.04
[7]; 0 μM: 1.33 ± 0.01
  Biofilm (A595): 0.46 ± 0.01
[8]; 0 μM: 0.79 ± 0.01
  Growth (A578): 0.79 ± 0.04
[8]; 0 μM: 0.80 ± 0.07
  Biofilm (A595): 0.13 ± 0.03
[9]; 0 μM: 0.76 ± 0.08
  Growth (A578): 0.65 ± 0.02
[9]; 0 μM: 1.94 ± 0.19
  Biofilm (A595): 0.26 ± 0.07
